Earlier results in patent publication US20060084141A1, “Biosynthetic gene cluster for the maytansinoid antitumor agent ansamitocin” (priority 2001, published 2006).

How the values were obtained:
[1] = system: human cancer patients
[2] = system: patients with different types of tumors; conditions: phase II trials
[3] = system: human carcinoma and leukemia cell lines; conditions: in vitro
[4] = system: various murine leukemia cell lines; conditions: in vitro

COc1cc2cc(c1Cl)N(C)C(=O)C[C@H](OC(=O)[C@H](C)N(C)C(C)=O)[C@]1(C)O[C@H]1[C@H](C)[C@@H]1C[C@@](O)(NC(=O)O1)[C@H](OC)/C=C/C=C(\C)C2 [Maytansine]
tumor response ([1]; phase I (early) trials): A few partial responses | dose limiting toxicity ([1]; phase I trials): dose limiting gastrointestinal toxicity and neurotoxicity | myelosuppression ([1]; phase I trials): modest levels of mylosuppression | response rates [2]: Insignificant response rates | dose inhibiting growth [3]: 10^−3 to 10^−7 μg/ml | dose inhibiting growth [4]: 10^−3 to 10^−7 μg/ml
